Reference: US20170114025A1, “METHODS FOR INHIBITING NECROPTOSIS” (Catalyst Therapeutics Pty Ltd, priority 2014, published 2017)
Read-outs that look alike come from different tables or passages of the source.

What was measured:
[1] = system: wild type U937 cells; assay: Cell death assay, TSQ-induced necroptosis in U937 cells (PI, flow cytometry); format: cell-based, human; settings: for IC50: Homo sapiens
Excerpt: (§1) Mouse dermal fibroblasts (MDFs) were isolated from three MlkI^−/− mice and three congenic wild type mice and then immortalized by SV40 large T antigen to generate three biologically independent cell lines, as described in Murphy J M, et al. (2013), Immunity 39(3):443-453. Immortalized MDFs were similarly prepared from three Ripk3^−/− mice and congenic wild type mice. MDFs and HEK293T were maintained in Dulbecco's modified Eagle's medium (DMEM) supplemented with 8-10% v/v fetal calf serum (FCS), and 5 μg/mL puromycin for lines stably transduced with inducible expression constructs for MLKL. U937 cells were cultured in RPMI1640 supplemented with 8% v/v FCS. Cell death assays were carried out in 24 well plates, seeding 1×10^5 cells per well. Cells attached over 4 h in the presence of 10 ng/mL doxycycline or 20 ng/mL were then treated with assorted combinations of Necrostatin (50 μM) and Q-VD-OPh (5 μM) 30 min prior to addition of TNF (100 ng/mL) and Smac mimetic (500 nM). After 24 h for MDF cells or 48 h for U937 cells, cells were harvested and PI positive cells (1 μg/mL) quantified using a BD FACSCalibur flow cytometer.

[2] = system: U937 human histiocytic leukemia cell line; assay: Screening for inhibition of TSQ induced necroptosis, 96 well plate format; format: cell-based; settings: U-937, 48 h
Protocol: Screening Compounds for Inhibition of TSQ Induced Necroptosis, 96 Well Plate Format.
U937 human histiocytic leukemia cell line.
35,000 per well in 120 μL of media, counted and plated immediately prior to addition of inhibitor and death stimuli. Final well volume of 150 μL after addition of compounds and death stimuli
HTRPMI (WEHI Media kitchen, contains L-Glutamine and penicillin, streptomycin)—supplemented with 7.4% v/v FCS (Gibco, Precision Plus. Lot #1221437)
48 hours following addition of compounds and death stimuli
DMSO Final Concentration (% v/v): 0.2%
Compounds that are in the Death Stimulation Cocktail and their Final Concentrations: • hTNF-Fc (100 ng/ml)—produced by Silke lab, WEHI • Compound A (500 nM)—Smac mimetic, Tetralogic • Q-VD-OPh (10 μM)—MP Biomedicals
Analysis: • Cells treated with PI staining (1 μg/ml) and analysed by flow cytometry
TNF; S: Smac mimetic; Q: Q-VD-OPh): TSQ treatment ensures that cells specifically undergo necroptotic cell death. TNF activates the TNF receptor, Smac mimetic direct the signal away from proinflammatory signaling and toward the RIP1/RIP3-mediated cell death pathways, and Q-VD-OPh ensures that the apoptotic response is blocked leaving only the programmed necrosis response. The compounds' activity (solution in DMSO) tested in this TSQ-induced assay is evaluated by measuring their ability to block cell death as measured by flow cytometry after PI staining.

[3] = system: wild-type MDFs; assay: Toxicity of compound in wild-type MDFs; format: cell-based; settings: triplicate experiments
Excerpt: as §1

[4] = system: U937 cells; assay: Counter screen: cell viability without TSQ cocktail (off target effect); format: cell-based; settings: U937 without TSQ cocktail
Protocol: In parallel, all compounds are tested for their ability to affect cell viability. The same U937 cells are treated with compound in DMSO without the TSQ cocktail. This counter screen enables evaluation of off-target effects. In this case gain, cell viability is measured by flow cytometry after PI staining.

[5] = system: U937 cells gene-edited to delete MLKL; assay: Toxicity / TS-induced apoptotic death in U937 cells gene-edited to delete MLKL; format: cell-based, human; settings: U937 cells lacking MLKL, TS treatment
Excerpt: as §1

[6] = system: wild type MDFs (mouse dermal fibroblasts); assay: Cell death assay, TSQ-induced necroptosis in MDFs (PI, flow cytometry); format: cell-based; settings: 24 h
Excerpt: as §1

With `CN(c1ccc(NC(=O)Nc2ccc(OC(F)(F)F)cc2)cc1)c1ccnc(Nc2cccc(S(N)(=O)=O)c2)n1` [Compound 1, 3-((4-(methyl(4-(3-(4-(trifluoromethoxy)phenyl)ureido)phenyl)amino)pyrimidin-2-yl)amino)benzenesulfonamide] the IC50 ([1]; U-937, 48 h, read-out: IC50, rescue from TSQ-induced necroptosis) was 50 to 100 nM, the IC50 ([1]; U-937, read-out: Inhibition of necroptosis (IC50)) was 50 to 100 nM and the “cells rescued from TSQ-induced necroptosis” value ([1]; wt U937 cells, 48 h) was about 50%. The IC50 ([2]; read-out: Cell based assay Average) was 69.4 nM, the IC50 ([2]; read-out: Cell based assay IC50) was 25.4 nM and the “concentrations at which toxicity induces death of wild-type MDFs” value [3] was at least 5 µM. The “Off target effect (% cell death) at 500 nM” value ([4]; compound at 500 nM) was under 20%, the “Off target effect (% cell death) at 1 uM” value ([4]; compound at 1 uM) was under 20% and the “Off target effect (% cell death) at 5 uM” value ([4]; compound at 5 uM) was 60%. The “Off target effect (% cell death) at 10 uM” value ([4]; compound at 10 uM) was 79%, the “effect on TS-induced apoptotic death” value [5] was “unaffected” and the IC50 ([6]; Mus musculus, Fibroblast, read-out: IC50, rescue from TSQ-induced necroptosis) was about 500 nM. The “cells rescued from TSQ-induced necroptosis” value ([6]; wt MDFs) was about 50%.
